# Source: patent US20240216352A1 (priority 2022, published 2024)
# Values joined by “and” are separate entries in the source; they are usually repeats but may differ in a detail not shown here. Identical values can stand only once.
# Tests used:
# [1] = test system: healthy Japanese participants; assay: Phase 1 Part C MAD Japanese cohorts: blood pressure; assay type: in vivo, human
# Protocol: The study was performed in 3 parts in 112 healthy male and female participants, including 24 Japanese participants. Female participants were to be not of childbearing potential. The present study was designed to evaluate the safety and tolerability, PK, and exploratory PD of an oral suspension of Compound A. Parts A and B (Cohort B1 only) enrolled healthy participants and was conducted at a site in The Netherlands and Part B (Cohort B2 to B5) enrolled healthy non-Japanese participants and was conducted at a site in the United Kingdom (UK). Part C enrolled healthy Japanese participants and was conducted at the same site in the UK.
# Part C was a MAD study in 3 sequential dose escalation cohorts (30 mg BID, 60 mg BID, and 90 mg BID) of 8 healthy Japanese participants (6 active+2 placebo) each. Eligible participants in Cohorts C1 to C3 received study drug (Compound A or placebo) administered orally for 14 days.
# Physical examinations, vital sign measurements (including orthostasis testing in Cohort A6, Cohort B3 to B5, and C1 to C3 at selected time points), 12-lead electrocardiogram (ECG), and clinical laboratory evaluations were performed at selected times throughout the study. In addition, Holter monitoring was performed for the first 24 hours post dose on Day 1 in Part A (not in FE/pH cohort), and also for the first 24 hours post dose on Day 1 and Day 14 in Parts B and C. Participants were closely monitored for adverse events (AEs). Blood samples were collected for up to 14 days (follow-up visit) after (last) study drug administration for PK analysis. In addition, blood and urine were collected for exploratory biomarker assessments and for biobanking of samples for potential analyses. Urine was collected for potential PK analysis for up to 96 hours after a single dose of Compound A or placebo was administered in the SAD part, and for up to 24 hours after the first (morning) dose of study drug on Day 1 and for up to 24 hours after the last (morning) dose of study drug on Day 14 in the MAD parts.
# participants with PPF = assay: Phase 2 study, PPF cohort: efficacy (ppFVC, FVC); assay type: in vivo, human; details: for Difference (S.E.) in rate of decline in FVC (% Predicted), 30 mg - placebo: 30 mg BID
# Protocol: A total of 123 participants with PPF were randomized. Participants (age ≥21 years) were randomized (1:1:1) to receive 30 mg or 60 mg Compound A or PBO twice daily for 26 weeks. […] Immunosuppressive medications (mycophenolate mofetil, mycophenolic acid, azathioprine and/or tacrolimus) were permitted only if dosing is stable for ≥6 months prior to screening. If receiving antifibrotic agents pirfenidone or nintedanib, patients had to receive a stable dosage for ≥3 months prior to screening and during the screening period; if not receiving pirfenidone or nintedanib, patients had to be naive to both drugs or not have received either 4 weeks prior to Day 1. A total of 47 (38.2%) subjects were receiving antifibrotic treatment (with or without immunosuppression therapy). Of those subjects, 34 were being treated with nintedanib and 13 with pirfenidone. Participants were stratified by usual interstitial pneumonia (UIP) pattern (presence versus absence) and background therapy (antifibrotics+/−ILD-targeted immunosuppression versus ILD-targeted immunosuppression alone versus none). UIP pattern was present in 52% of subjects and unclassifiable ILD was the most common disease categorization.
# The study was not powered to detect statistical significance (no formal testing). No target effect size was defined in the study design. There were two estimand approaches for analysis: • Treatment Policy: Effect of treatment with dose reduction as part of treatment regimen.
# While-On Treatment: Effect of treatment without dose reduction.
# The main efficacy endpoint, rate of FVC decline (in % of predicted) from baseline to wk-26 in the PPF cohort, was estimated using a linear mixed-effects model utilizing all FVC timepoints. It was analyzed under a primary estimand (utilizing all data, treatment policy strategy), and under supplementary estimand (utilizing all data up to the point of dose reduction, while-on-treatment strategy). Analysis was performed in the overall population as well as in sub-groups by 1) background anti-fibrotic treatment or not 2) UIP radiographic pattern (presence or not). The mean baseline ppFVC was 66.7% for the PPF cohort.
smiles,measurement,setting,value
"CCCN(C)C(=O)OCc1c(-c2ccc(O[C@H]3CCC[C@H](C(=O)O)C3)c(C)n2)nnn1C [Compound A, (1S,3S)-3-((2-methyl-6-(1-methyl-5-(((methyl(propyl)carbamoyl)-oxy)methyl)-1H-1,2,3-triazol-4-yl)pyridin-3-yl)oxy)cyclohexane-1-carboxylic acid]",Maximum of mean (±SD) reduction in DBP from baseline (column printed under the head Baseline (mmHg)),[1]; Japanese MAD 30 BID (C1),8.8 ± 5.12 mmHg
same,Maximum of mean (±SD) reduction in SBP from baseline,[1]; Japanese MAD 30 BID (C1),15.0 ± 6.84 mmHg
same,Time of maximum mean SBP reduction,[1]; Japanese MAD 30 BID (C1),1-4 Day-h
same,Maximum of mean (±SD) reduction in DBP from baseline (column printed under the head Baseline (mmHg)),[1]; Japanese MAD 60 BID (C2),8.2 ± 10.40 mmHg
same,Maximum of mean (±SD) reduction in SBP from baseline,[1]; Japanese MAD 60 BID (C2),13.0 ± 8.22 mmHg
same,Time of maximum mean DBP reduction,[1]; Japanese MAD 60 BID (C2),4-16 Day-h
same,Time of maximum mean SBP reduction,[1]; Japanese MAD 60 BID (C2),2-16 Day-h
same,Maximum of mean (±SD) reduction in DBP from baseline (column printed under the head Baseline (mmHg)),[1]; Japanese MAD 90 BID (C2),8.0 ± 8.22 mmHg
same,Maximum of mean (±SD) reduction in SBP from baseline,[1]; Japanese MAD 90 BID (C2),11.8 ± 8.47 mmHg
same,Time of maximum mean DBP reduction,[1]; Japanese MAD 90 BID (C2),1-6 Day-h
same,Time of maximum mean SBP reduction,[1]; Japanese MAD 90 BID (C2),1-6 Day-h
same,Dose dependence of mean BP reduction,[1]; Japanese MAD cohorts,no clear Compound A dose-dependent BP reduction trend
same,"Difference (S.E.) in rate of decline in FVC (% Predicted), 30 mg - placebo","participants with PPF; UIP absent, primary estimand (treatment policy)",2.25 (2.13) % Predicted
same,"Difference (S.E.) in rate of decline in FVC (% Predicted), 30 mg - placebo","participants with PPF; UIP absent, supplementary estimand (while on treatment)",2.26 (2.28) % Predicted
same,"Difference (S.E.) in rate of decline in FVC (% Predicted), 30 mg - placebo","participants with PPF; UIP present, primary estimand (treatment policy)",0.88 (1.6) % Predicted
same,"Difference (S.E.) in rate of decline in FVC (% Predicted), 30 mg - placebo","participants with PPF; UIP present, supplementary estimand (while on treatment)",1.28 (1.61) % Predicted
same,"Difference (S.E.) in rate of decline in FVC (% Predicted), 30 mg - placebo","participants with PPF; not receiving antifibrotic treatment, primary estimand (treatment policy)",1.28 (1.63) % Predicted
same,"Difference (S.E.) in rate of decline in FVC (% Predicted), 30 mg - placebo","participants with PPF; not receiving antifibrotic treatment, supplementary estimand (while on treatment)",1.34 (1.66) % Predicted
same,"Difference (S.E.) in rate of decline in FVC (% Predicted), 30 mg - placebo","participants with PPF; overall, primary estimand (treatment policy)",1.57 (1.29) % Predicted
same,"Difference (S.E.) in rate of decline in FVC (% Predicted), 30 mg - placebo","participants with PPF; overall, supplementary estimand (while on treatment)",1.78 (1.34) % Predicted
same,"Difference (S.E.) in rate of decline in FVC (% Predicted), 30 mg - placebo","participants with PPF; receiving antifibrotic treatment, primary estimand (treatment policy)",1.99 (2.12) % Predicted
same,"Difference (S.E.) in rate of decline in FVC (% Predicted), 30 mg - placebo","participants with PPF; receiving antifibrotic treatment, supplementary estimand (while on treatment)",2.58 (2.25) % Predicted
same,Dose response of efficacy (ppFVC decline),participants with PPF; 30 mg and 60 mg BID,Clear dose response
same,"Difference (S.E.) in rate of decline in FVC (% Predicted), 60 mg - placebo","participants with PPF; 60 mg BID, UIP absent, primary estimand (treatment policy)",3.81 (2.02) % Predicted
same,"Difference (S.E.) in rate of decline in FVC (% Predicted), 60 mg - placebo","participants with PPF; 60 mg BID, UIP absent, supplementary estimand (while on treatment)",3.80 % Predicted and 3.8 (2.17) % Predicted
same,"Difference (S.E.) in rate of decline in FVC (% Predicted), 60 mg - placebo","participants with PPF; 60 mg BID, UIP present, primary estimand (treatment policy)",2.49 (1.61) % Predicted
same,"Difference (S.E.) in rate of decline in FVC (% Predicted), 60 mg - placebo","participants with PPF; 60 mg BID, UIP present, supplementary estimand (while on treatment)",2.12 % Predicted and 2.12 (1.62) % Predicted
same,"Difference (S.E.) in rate of decline in FVC (% Predicted), 60 mg - placebo","participants with PPF; 60 mg BID, not receiving antifibrotic treatment, primary estimand (treatment policy)",2.85 (1.6) % Predicted
same,"Difference (S.E.) in rate of decline in FVC (% Predicted), 60 mg - placebo","participants with PPF; 60 mg BID, not receiving antifibrotic treatment, supplementary estimand (while on treatment)",2.61 % Predicted and 2.61 (1.63) % Predicted
same,"Difference (S.E.) in rate of decline in FVC (% Predicted), 60 mg - placebo","participants with PPF; 60 mg BID, overall, primary estimand (treatment policy)",3.2 % Predicted and 3.15 (1.27) % Predicted
same,"Difference (S.E.) in rate of decline in FVC (% Predicted), 60 mg - placebo","participants with PPF; 60 mg BID, overall, supplementary estimand (while on treatment)",2.9 % Predicted and 2.94 % Predicted and 2.94 (1.32) % Predicted
same,"Difference (S.E.) in rate of decline in FVC (% Predicted), 60 mg - placebo","participants with PPF; 60 mg BID, receiving antifibrotic treatment, primary estimand (treatment policy)",3.74 (2.1) % Predicted
same,"Difference (S.E.) in rate of decline in FVC (% Predicted), 60 mg - placebo","participants with PPF; 60 mg BID, receiving antifibrotic treatment, supplementary estimand (while on treatment)",3.28 % Predicted and 3.28 (2.21) % Predicted
same,Adjusted mean treatment difference in absolute change in FVC vs placebo,"participants with PPF; 60 mg BID, week 26",87.4 mL
same,Consistency of efficacy across sub-groups,participants with PPF; irrespective of background antifibrotics or of UIP pattern,Efficacy consistent in all sub-groups
